Laboratory results from patent publication US20240217968A1, “PHARMACEUTICAL COMPOUND” (DUKE STREET BIO LIMITED, priority 2021, published 2024).

These molecules were tested against T1, recombinant human Flag-tagged PARP7 (amino acids 456-657) (Homo sapiens, UniProt Q7Z3E1) (assay: PARP7 biochemical DELFIA assay (auto-MARylation)). Conditions: DELFIA readout, IC50 class.
T1 construct: recombinant human Flag-tagged PARP7 (amino acids 456-657)
T1 sequence (Q7Z3E1 456-657): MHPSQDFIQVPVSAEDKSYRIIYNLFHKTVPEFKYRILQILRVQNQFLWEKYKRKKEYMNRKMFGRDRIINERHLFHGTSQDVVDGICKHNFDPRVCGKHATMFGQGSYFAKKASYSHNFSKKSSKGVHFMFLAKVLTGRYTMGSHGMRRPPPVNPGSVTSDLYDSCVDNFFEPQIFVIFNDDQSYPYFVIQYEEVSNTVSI
In short: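 Flag-PARP7 (456-657), 12.5-37.5 nM stock, captured on anti-FLAG wells, preincubated 30 min with compound, then auto-MARylated with biotin-NAD+ (15 μM stock) in HEPES pH 7.5/NaCl/DTT/BSA/Tween for 2-3 h at room temperature. NAD+ quench; Eu-streptavidin DELFIA read, Ex337/Em620 nm.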

| IC50 [nM] | SMILES |
| --- | --- |
| 1000 to 10000 | O=C(c1cccc(Cc2cccc3c(=O)[nH]c(=O)[nH]c23)c1)N1CCN(C(=O)C2CC2)CC1 [Compound 19] |
| 1000 to 10000 | N#Cc1ccc(N2CCN(C(=O)c3cccc(Cc4cccc5c(=O)[nH]ncc45)c3)CC2)cc1 [Compound 26] |
| ≤ 100 | CC(COCCn1cc(C(F)(F)F)c2c(=O)[nH]ncc21)C(=O)N1CCN(c2ncc(C(F)(F)F)cn2)CC1 (single isomer, unassigned) [Compound 411] |
| ≤ 100 | O=C(CCOCCn1nc(C(F)(F)F)c2c(=O)[nH]ncc21)N1CCN(c2nc3ccccc3[nH]2)CC1 [Compound 257] |
| 100 to 1000 | CS(=O)(=O)c1ccc(N2CCN(C(=O)CCOCCc3cccc4c(=O)[nH]ncc34)CC2)nc1 [Compound 113] |
| 100 to 1000 | CC(COCCn1ncc2c(=O)[nH]ncc21)C(=O)N1CCN(c2ncc(C(F)(F)F)cn2)CC1 (centres unmarked) [Compound 156] |
| ≤ 100 | CC(CCOCC(=O)N1CCN(c2ccc(C#N)cn2)CC1)n1nc(C(F)(F)F)c2c(=O)[nH]ncc21 (single isomer, unassigned) [Compound 466] |
| ≤ 100 | CC(CCOCC(=O)N1CCN(c2ncc(Cl)cn2)CC1)n1cc(C(F)(F)F)c2c(=O)[nH]ncc21 (single isomer, unassigned) [Compound 457] |
| ≤ 100 | N#Cc1ccc(N2CCN(C(=O)CCOCCc3cc(Cl)cc4c(=O)[nH]ncc34)CC2)nc1 [Compound 79] |
| ≤ 100 | CC(COCCC(=O)N1CCN(c2ccc(C#N)cn2)CC1)c1cccc2c(=O)[nH]ncc12 (single isomer, unassigned) [Compound 71] |
| ≤ 100 | O=C(OCCCCc1cccc2c(=O)[nH]ncc12)N1CCN(c2ncc(C(F)(F)F)cn2)CC1 [Compound 165] |
| 100 to 1000 | CCc1cc2c(=O)[nH]ncc2n1CCOCCC(=O)N1CCN(c2ncc(C(F)(F)F)cn2)CC1 [Compound 59] |
| ≤ 100 | O=C(CCOCCn1cc(C(F)F)c2c(=O)[nH]ncc21)N1CCN(c2ncc(C(F)(F)F)cn2)CC1 [Compound 198] |
| 100 to 1000 | CC(COCCC(=O)N1CCN(c2ncc(C(F)(F)F)cn2)CC1)c1ccc(Cl)c2c(=O)[nH]ncc12 (centres unmarked) [Compound 399] |
| ≤ 100 | CC(COCCC(=O)N1CCN(c2ncc(C3CC3)cn2)CC1)n1nc(C(F)(F)F)c2c(=O)[nH]ncc21 (single isomer, unassigned) [Compound 280] |
| ≤ 100 | CC(COCCC(=O)N1CCN(c2ccc(C3COC3)cn2)CC1)n1nc(C(F)(F)F)c2c(=O)[nH]ncc21 (single isomer, unassigned) [Compound 310] |
| ≤ 100 | N#Cc1ccc(N2CCN(C(=O)CCOCC(F)(F)c3cccc4c(=O)[nH]ncc34)CC2)nc1 [Compound 446] |
| ≤ 100 | O=C(CCOCCc1cccc2c(=O)[nH]ncc12)N1CCN(c2ncc(Cl)cn2)CC1 [Compound 100] |
| 100 to 1000 | CC(COCCC(=O)N1CCN(c2ncc(C#N)cn2)CC1)c1ccc(Cl)c2c(=O)[nH]ncc12 (single isomer, unassigned) [Compound 414] |
| ≤ 100 | N#Cc1ccc2nc(N3CCN(C(=O)CCOCCc4cccc5c(=O)[nH]ncc45)CC3)oc2c1 [Compound 192] |
| ≤ 100 | CC(COCCC(=O)N1CCN(c2ncc(C3COC3)cn2)CC1)n1nc(C(F)(F)F)c2c(=O)[nH]ncc21 (single isomer, unassigned) [Compound 289] |
| ≤ 100 | CC(COCCC(=O)N1CCN(c2ccc(C#N)cn2)CC1)n1nc(C(F)F)c2c(=O)[nH]ncc21 (centres unmarked) [Compound 438] |
| 1000 to 10000 | O=C(CCCOc1cccc2c(=O)[nH]ncc12)N1CCN(c2ncc(C(F)(F)F)cn2)CC1 [Compound 37] |
| ≤ 100 | [2H]C([2H])(OCCC(=O)N1CCN(c2ncc(C(F)(F)F)cn2)CC1)C(C)n1nc(C(F)(F)F)c2c(=O)[nH]ncc21 (centres unmarked) [Compound 422] |
| ≤ 100 | O=C(CCOCCc1ccc(Cl)c2c(=O)[nH]ncc12)N1CCN(c2ncc(C(F)(F)F)cn2)CC1 [Compound 226] |
| ≤ 100 | O=C(CCOCCN1C(=O)CCc2c1cn[nH]c2=O)N1CCN(c2nc3ccccc3o2)CC1 [Compound 277] |
